{
  "source": "ChEMBL document CHEMBL1148996",
  "about": "“6-Methoxylated and C-glycosyl flavonoids from Centaurea species” (1984)",
  "type_in_all_cases": "functional",
  "key": {"Escherichia coli": {"tested_on": "Escherichia coli", "assay": "Antimicrobial activity against Escherichia coli ATCC 8739 by paper disk method"}, "Pseudomonas aeruginosa": {"tested_on": "Pseudomonas aeruginosa", "assay": "Antimicrobial activity against Pseudomonas aeruginosa ATCC 1539 by paper disk method"}, "Klebsiella pneumoniae": {"tested_on": "Klebsiella pneumoniae", "assay": "Antimicrobial activity against Klebsiella pneumoniae UJ57 by paper disk method"}, "Proteus vulgaris": {"tested_on": "Proteus vulgaris", "assay": "Antimicrobial activity against Proteus vulgaris ATCC 8427 by paper disk method"}, "Bacillus subtilis": {"tested_on": "Bacillus subtilis", "assay": "Antimicrobial activity against Bacillus subtilis ATCC 6633 by paper disk method"}},
  "data": [
    {"smiles": "COc1ccc(-c2cc(=O)c3c(O)c(OC)c(OC)cc3o2)cc1OC", "values": [
      {"measurement": "MBC", "setting": "Escherichia coli", "value": 500, "unit": "µg/mL"},
      {"measurement": "MIC", "setting": "Escherichia coli", "value": 250, "unit": "µg/mL"},
      {"measurement": "MBC", "setting": "Pseudomonas aeruginosa", "value": 250, "unit": "µg/mL"},
      {"measurement": "MIC", "setting": "Pseudomonas aeruginosa", "value": 125, "unit": "µg/mL"}
    ]},
    {"smiles": "O=c1cc(-c2ccc(O)cc2)oc2cc(O)cc(O)c12", "note": "[APIGENIN]", "values": [
      {"measurement": "MBC", "setting": "Klebsiella pneumoniae", "value": 438, "unit": "µg/mL"},
      {"measurement": "MIC", "setting": "Klebsiella pneumoniae", "value": 219, "unit": "µg/mL"},
      {"measurement": "MBC", "setting": "Proteus vulgaris", "value": 438, "unit": "µg/mL"},
      {"measurement": "MIC", "setting": "Proteus vulgaris", "value": 54.8, "unit": "µg/mL"},
      {"measurement": "MBC", "setting": "Escherichia coli", "value": 438, "unit": "µg/mL"},
      {"measurement": "MIC", "setting": "Escherichia coli", "value": 110, "unit": "µg/mL"},
      {"measurement": "MBC", "setting": "Pseudomonas aeruginosa", "value": 438, "unit": "µg/mL"},
      {"measurement": "MIC", "setting": "Pseudomonas aeruginosa", "value": 110, "unit": "µg/mL"},
      {"measurement": "MBC", "setting": "Bacillus subtilis", "value": 219, "unit": "µg/mL"},
      {"measurement": "MIC", "setting": "Bacillus subtilis", "value": 110, "unit": "µg/mL"}
    ]},
    {"smiles": "COc1ccc(-c2cc(=O)c3c(O)c(OC)c(OC)cc3o2)cc1O", "note": "[EUPATORIN]", "values": [
      {"measurement": "MBC", "setting": "Escherichia coli", "value": "> 375", "unit": "µg/mL"},
      {"measurement": "MIC", "setting": "Escherichia coli", "value": 188, "unit": "µg/mL"},
      {"measurement": "MBC", "setting": "Bacillus subtilis", "value": 188, "unit": "µg/mL"},
      {"measurement": "MIC", "setting": "Bacillus subtilis", "value": 93.8, "unit": "µg/mL"}
    ]},
    {"smiles": "COc1c(O)cc2oc(-c3ccc(O)cc3)cc(=O)c2c1O", "note": "[HISPIDULIN]", "values": [
      {"measurement": "MBC", "setting": "Proteus vulgaris", "value": "> 250", "unit": "µg/mL"},
      {"measurement": "MIC", "setting": "Proteus vulgaris", "value": 125, "unit": "µg/mL"},
      {"measurement": "MBC", "setting": "Bacillus subtilis", "value": "> 250", "unit": "µg/mL"},
      {"measurement": "MIC", "setting": "Bacillus subtilis", "value": 125, "unit": "µg/mL"}
    ]},
    {"smiles": "COc1cc(-c2cc(=O)c3c(O)c(OC)c(O)cc3o2)ccc1O", "note": "[JACEOSIDINE]", "values": [
      {"measurement": "MBC", "setting": "Escherichia coli", "value": 250, "unit": "µg/mL"},
      {"measurement": "MIC", "setting": "Escherichia coli", "value": 125, "unit": "µg/mL"}
    ]}
  ]
}
